{
  "source": "PubChem BioAssay (NCI)",
  "assay_in_all_cases": "NCI tumour cell line growth inhibition, 48 h",
  "key": {"[1]": {"system": "HCC-2998 colon"}, "[2]": {"system": "A498 renal"}, "[3]": {"system": "U251 CNS"}, "[4]": {"system": "EKVX NSCLC"}, "[5]": {"system": "DMS 114 small cell lung"}, "[6]": {"system": "HCT-116 colon"}, "[7]": {"system": "SF-295 CNS"}, "[8]": {"system": "SK-MEL-2 melanoma"}, "[9]": {"system": "LOX IMVI melanoma"}, "[10]": {"system": "SNB-19 CNS"}, "[11]": {"system": "HOP-92 NSCLC"}, "[12]": {"system": "HCT-15 colon"}, "[13]": {"system": "XF 498 CNS"}, "[14]": {"system": "NCI-H23 lung"}, "[15]": {"system": "A549 NSCLC"}, "[16]": {"system": "CAKI-1 renal"}, "[17]": {"system": "DMS 273 small cell lung"}, "[18]": {"system": "K-562 leukemia"}, "[19]": {"system": "UACC-257 melanoma"}, "[20]": {"system": "SN12C renal"}, "[21]": {"system": "KM20L2 colon"}, "[22]": {"system": "NCI-H226 lung"}, "[23]": {"system": "KM12 colon"}, "[24]": {"system": "MOLT-4 leukemia"}, "[25]": {"system": "IGROV1 ovarian"}, "[26]": {"system": "HT29 colon"}, "[27]": {"system": "COLO 205 colon"}, "[28]": {"system": "OVCAR-4 ovarian"}, "[29]": {"system": "HL-60(TB) leukemia"}, "[30]": {"system": "P388 leukemia"}, "[31]": {"system": "NCI/ADR-RES ovarian"}, "[32]": {"system": "SK-MEL-5 melanoma"}, "[33]": {"system": "M19-MEL melanoma"}, "[34]": {"system": "CCRF-CEM leukemia"}, "[35]": {"system": "SF-539 CNS"}, "[36]": {"system": "RXF 393 renal"}, "[37]": {"system": "RPMI-8226 leukemia"}, "[38]": {"system": "OVCAR-3 ovarian"}, "[39]": {"system": "DLD-1 colon"}, "[40]": {"system": "SK-MEL-28 melanoma"}, "[41]": {"system": "SF-268 CNS"}, "[42]": {"system": "UACC-62 melanoma"}, "[43]": {"system": "HOP-18 NSCLC"}, "[44]": {"system": "OVCAR-5 ovarian"}, "[45]": {"system": "MCF7 breast"}, "[46]": {"system": "SNB-75 CNS"}, "[47]": {"system": "OVCAR-8 ovarian"}, "[48]": {"system": "NCI-H522 lung"}, "[49]": {"system": "UO-31 renal"}, "[50]": {"system": "SW-620 colon"}, "[51]": {"system": "SK-OV-3 ovarian"}, "[52]": {"system": "SN12K1 renal"}, "[53]": {"system": "SNB-78 CNS"}, "[54]": {"system": "MALME-3M melanoma"}, "[55]": {"system": "HOP-62 NSCLC"}, "[56]": {"system": "NCI-H460 lung"}, "[57]": {"system": "P388/ADR leukemia"}},
  "note": "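1) Cells in 96-well plates. 2) Compound, 48 h, 5 concentrations. 3) Linear interpolation between surrounding doses. 4) Unreached endpoint = highest concentration. Definition used: TGI = concentration required for complete inhibition of growth.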",
  "data": [
    {"molecule": "COc1ccccc1Cc1nc(-c2ccccc2)nn(C2OC(COC(C)=O)C(OC(C)=O)C(OC(C)=O)C2OC(C)=O)c1=S", "note": "(configuration not stated)", "values": [
      {"measurement": "TGI", "setting": "[1]", "value": "> 43.2", "unit": "µM"},
      {"measurement": "TGI", "setting": "[2]", "value": "> 56.2", "unit": "µM"},
      {"measurement": "TGI", "setting": "[3]", "value": "> 31.6", "unit": "µM"},
      {"measurement": "TGI", "setting": "[4]", "value": "> 86.4", "unit": "µM"},
      {"measurement": "TGI", "setting": "[5]", "value": "> 100", "unit": "µM"},
      {"measurement": "TGI", "setting": "[6]", "value": "> 45.9", "unit": "µM"},
      {"measurement": "TGI", "setting": "[7]", "value": "> 69.4", "unit": "µM"},
      {"measurement": "TGI", "setting": "[8]", "value": 41.3, "unit": "µM"},
      {"measurement": "TGI", "setting": "[9]", "value": "> 100", "unit": "µM"},
      {"measurement": "TGI", "setting": "[10]", "value": "> 52.7", "unit": "µM"},
      {"measurement": "TGI", "setting": "[11]", "value": 24.4, "unit": "µM"},
      {"measurement": "TGI", "setting": "[12]", "value": 84.6, "unit": "µM"},
      {"measurement": "TGI", "setting": "[13]", "value": 6.49, "unit": "µM"},
      {"measurement": "TGI", "setting": "[14]", "value": 42.6, "unit": "µM"},
      {"measurement": "TGI", "setting": "[15]", "value": "> 100", "unit": "µM"},
      {"measurement": "TGI", "setting": "[16]", "value": 32.9, "unit": "µM"},
      {"measurement": "TGI", "setting": "[17]", "value": "> 79.6", "unit": "µM"},
      {"measurement": "TGI", "setting": "[18]", "value": "> 100", "unit": "µM"},
      {"measurement": "TGI", "setting": "[19]", "value": "> 100", "unit": "µM"},
      {"measurement": "TGI", "setting": "[20]", "value": 32.2, "unit": "µM"},
      {"measurement": "TGI", "setting": "[21]", "value": "> 100", "unit": "µM"},
      {"measurement": "TGI", "setting": "[22]", "value": "> 95.7", "unit": "µM"},
      {"measurement": "TGI", "setting": "[23]", "value": "> 100", "unit": "µM"},
      {"measurement": "TGI", "setting": "[24]", "value": "> 100", "unit": "µM"},
      {"measurement": "TGI", "setting": "[25]", "value": "> 93.9", "unit": "µM"},
      {"measurement": "TGI", "setting": "[26]", "value": "> 100", "unit": "µM"},
      {"measurement": "TGI", "setting": "[27]", "value": "> 86.9", "unit": "µM"},
      {"measurement": "TGI", "setting": "[28]", "value": 8.58, "unit": "µM"},
      {"measurement": "TGI", "setting": "[29]", "value": "> 100", "unit": "µM"},
      {"measurement": "TGI", "setting": "[30]", "value": "> 100", "unit": "µM"},
      {"measurement": "TGI", "setting": "[31]", "value": "> 100", "unit": "µM"},
      {"measurement": "TGI", "setting": "[32]", "value": 26.1, "unit": "µM"},
      {"measurement": "TGI", "setting": "[33]", "value": "> 100", "unit": "µM"},
      {"measurement": "TGI", "setting": "[34]", "value": "> 100", "unit": "µM"},
      {"measurement": "TGI", "setting": "[35]", "value": 33.6, "unit": "µM"},
      {"measurement": "TGI", "setting": "[36]", "value": 31.9, "unit": "µM"},
      {"measurement": "TGI", "setting": "[37]", "value": 80.6, "unit": "µM"},
      {"measurement": "TGI", "setting": "[38]", "value": "> 85.3", "unit": "µM"},
      {"measurement": "TGI", "setting": "[39]", "value": "> 100", "unit": "µM"},
      {"measurement": "TGI", "setting": "[40]", "value": "> 100", "unit": "µM"},
      {"measurement": "TGI", "setting": "[41]", "value": 60.4, "unit": "µM"},
      {"measurement": "TGI", "setting": "[42]", "value": "> 80.3", "unit": "µM"},
      {"measurement": "TGI", "setting": "[43]", "value": 97.7, "unit": "µM"},
      {"measurement": "TGI", "setting": "[44]", "value": "> 100", "unit": "µM"},
      {"measurement": "TGI", "setting": "[45]", "value": 33.9, "unit": "µM"},
      {"measurement": "TGI", "setting": "[46]", "value": 15.4, "unit": "µM"},
      {"measurement": "TGI", "setting": "[47]", "value": "> 100", "unit": "µM"},
      {"measurement": "TGI", "setting": "[48]", "value": 36.4, "unit": "µM"},
      {"measurement": "TGI", "setting": "[49]", "value": "> 86", "unit": "µM"},
      {"measurement": "TGI", "setting": "[50]", "value": "> 100", "unit": "µM"},
      {"measurement": "TGI", "setting": "[51]", "value": "> 67.2", "unit": "µM"},
      {"measurement": "TGI", "setting": "[52]", "value": "> 53.4", "unit": "µM"},
      {"measurement": "TGI", "setting": "[53]", "value": "> 70.1", "unit": "µM"},
      {"measurement": "TGI", "setting": "[54]", "value": 72.3, "unit": "µM"},
      {"measurement": "TGI", "setting": "[55]", "value": 38.3, "unit": "µM"},
      {"measurement": "TGI", "setting": "[56]", "value": "> 73.5", "unit": "µM"},
      {"measurement": "TGI", "setting": "[57]", "value": "> 100", "unit": "µM"}
    ]}
  ]
}
